Measurements as given in US20070032410A1, “COMPOSITIONS AND METHODS FOR THE TREATMENT OF PSYCHIATRIC DISORDERS” (Atossa Healthcare, Inc., priority 2000, published 2007).
*1 amine or outer side, *2 acyl side, *3 side chain or, on linkers, in order; H or OH if unused. Where a SMILES comes first, the peptide text is derived from it. Bridges are numbered along the chain shown (N, C = ends). X1 = O=C(CCC[*:2])[*:1]

Tested on: tracheal/bronchial epithelial cell membrane inserts (EpiAirway)
Experiment: Permeation of carbetocin formulations across tracheal/bronchial epithelial cell membrane inserts (EIA of basolateral media)
Format: in vitro ADME
Settings: human, 1 h
Method: Permeation studies on varying formulations of carbetocin were completed using tracheal/bronchial epithelial cell membrane inserts. Samples were evaluated for appearance, color, clarity, pH, osmolality, cell viability using an MTT assay, cytotoxicity using an LDH assay, and transepithelial resistance and permeation.
Tracheal/bronchial epithelial cell membrane inserts (EpiAirway, MatTek Corp., Ashland, Mass.) were received the day before the experiment. Each tissue insert was placed in a well of a 6 well plate which contained 0.9 ml of serum free media and cultured at 37° C. for 24 hours to allow the tissues to equilibrate. The day of the experiment, transepithelial electrical resistance measurements were taken for each insert using a Tissue Resistance Measurement Chamber connected to an Epithelial Voltohmeter (World Precision Instruments, Inc., Sarasota, Fla.).
After the background transepithelial electrical resistance was determined, 1 ml of media was placed in the bottom of each well in a six well plate. The inserts were inverted and drained and placed into new wells with fresh media. For samples 1-12, 100 μl of the formulation to be tested was then added to an insert. For samples 13-92, 25 μl of the formulation was added to each insert. The inserts were placed in a shaking incubator at 100 rpm and 37° C. for one hour. The tissue inserts were then removed from the incubator. […]

permeation: less than 1.0%
SMILES: CC[C@H](C)[C@@H]1NC(=O)[C@H](Cc2ccc(OC)cc2)NC(=O)CCCSC[C@@H](C(=O)N2CCC[C@H]2C(=O)N[C@@H](CC(C)C)C(=O)NCC(N)=O)NC(=O)[C@H](CC(N)=O)NC(=O)[C@H](CCC(N)=O)NC1=O [carbetocin, 1-butanoic acid-2-(O-methyl-L-tyrosine)-1-carbaoxytocin] (Y(Me)IQNCPLG-NH2; linker N-5 via X1)
